Results taken from patent US7524646B2 (priority 2001, dated 2009).

Assays:
Type in all cases: cell-based, E. coli
[1] = system: Δilv strain CU505 (wild-type valS); assay: Amino acid composition of total protein after growth with Abu, wild-type valS; conditions: WT + Abu (0.2 mM); 24 hours; relative to WT control that lacked Abu
Procedure: (§1) We anticipated that ValRS mutants that misincorporated Cys would also misincorporate Abu. […] Whole cell protein was isolated from strain CU505 grown in the presence of Abu (0.2 mM), in the presence or absence of the valS:T222P allele in the host cell. […] Finally, the valine-rich yeast protein AlaXp (swissprot:P53960) was overexpressed and purified from strains containing the valS:T222P allele grown in the presence of Abu. The protein samples were digested by trypsin and analyzed by mass spectrometry. […] For a given peptide the degree of misincorporation ranged between 9.5% and 18% per Val codon. Sequencing of several Abu-containing peptides confirmed that Abu was specifically misincorporated into positions designated by Val codons.
(§2) Table 2. Incorporation of Abu into cells bearing wild-type and T222P mutant alleles of valS. Cultures of the Δilv strain CU505 (19) and the isogenic strain β5498 carrying the valS:T222P allele were grown overnight in minimal medium (27) with Ile-Leu (0.3 mM) and limiting valine (0.04 mM Ile-Val), diluted (1/2), and adjusted with Ile-Val (0.02 mM) with or without Abu (0.2 mM). After 24 hours of growth, total protein was extracted as follows. Cells were first harvested by centrifugation and washed in cold 10% trichloroacetic acid (TCA, 1/2 of the culture volume). Cells were then re-centrifuged at 4000×g for 10 min, resuspended in cold 10% TCA (1/10 of the culture volume) and centrifuged again. The washed cells were resuspended in […], heated at 95° C. for 30 minutes and centrifuged (4000×g, 10 min). The precipitate was washed three times with cold acetone and dissolved in 50 mM NH4HCO3. Proteins were hydrolyzed in 6 N HCl-0.2% phenol at 110C. for 20 h in sealed tubes. Norleucine was added as an internal standard. Aliquots of the hydrolysates were analyzed on a Beckman 6300 Amino Acid Analyzer. Amino acids were quantified by appropriate standards and values are presented relative the wild-type (WT) control that lacked Abu.

[2] = system: strain β5498 carrying the valS:T222P allele; assay: Amino acid composition of total protein after growth with Abu, valS:T222P; conditions: for valine in cellular protein replaced by Abu: whole cell protein, strain harboring the mutant allele, Abu 0.2 mM
Procedure: as §1, §2

[3] = system: strain β5456 (valS:T222P); assay: Growth on Abu gradient plates, valS:T222P strain; conditions: gradient plate, 50 μl 0.1 M, 2 days at 37° C.
Procedure: FIG. 1C: Photographs showing the results of growth of a strain carrying the valS:T222P allele in the presence of L-threonine or Abu. Minimal medium plates supplemented with thymidine (0.3 mM) were pretreated with amino acid solutions by streaking either with Thr (50 μl (0.2 M)) or Abu (50 μl (0.1 M)) vertically along the diameter of the plate to create an amino acid gradient. Mutant (β5456) and wild-type (β5419 (thyA::erm+ ΔnrdD::kan+ pTS13 (bla+ thyA: 146GUA)) strains were then streaked horizontally across the plates and incubated for 2 days at 37° C.
as §1

valine auxotroph CU505 = assay: Growth of valine auxotroph with limiting valine and increasing Abu, wild-type valS; conditions: up to 1 mM Abu; OD 600 nm, 24 h, 30° C.
Procedure: (§3) FIG. 3. A graph showing the results of growth of the valine auxotroph CU505 in the presence of a limiting supply of valine and increasing concentrations of Abu. Overnight cultures of Δilv auxotrophs containing the WT valS (É) or the mutant valS:T222P allele (J) and grown in MS glucose medium with limiting valine (0.04 mM Ile-Val. 0.3 mM Ile-Leu) were diluted 1/1, the Val concentration was adjusted to 0.02 mM and the biomass was determined by measuring the optical density at 600 nm after 24 h of growth at 30° C.
(§4) Abu misincorporation. The valine auxotroph CU505 (33) was grown in the presence of a limiting supply of valine and increasing concentrations of Abu (FIG. 3). […] In contrast, when the valST222P allele was introduced into the chromosome (strain β5498), the yield of cells was diminished in the absence of Abu but increased up to 30% when Abu (0.2 mM) was added.

[4] = system: strain β5498 (valS:T222P allele); assay: Growth of valine auxotroph with limiting valine and Abu, valS:T222P; conditions: Abu 0.2 mM; limiting valine 0.02 mM; OD 600 nm, 24 h, 30° C.
Procedure: as §3, §4

[5] = T222P + Abu (0.2 mM), 24 hours, relative to WT control that lacked Abu

With `CCC(N)C(=O)O` (stereo not drawn) [Abu, α-aminobutyric acid] the “Abu incorporated into total protein” value [1] was 0.0, the “Ala incorporated into total protein” value [1] was 1.0 and the “Ile incorporated into total protein” value [1] was 1.0. For the same compound, the “Val + Abu incorporated into total protein” value [1] was 1.0, the “Val incorporated into total protein” value [1] was 1.0 and the “Abu incorporated into total protein” value [2, 5] was 0.24. For the same compound, the “Ala incorporated into total protein” value [2, 5] was 0.92, the “Ile incorporated into total protein” value [2, 5] was 1.0 and the “Val + Abu incorporated into total protein” value [2, 5] was 0.97. The “Val incorporated into total protein” value [2, 5] was 0.73, the “valine in cellular protein replaced by Abu” value [2] was 24% and the “valine in cellular protein replaced by Abu” value ([2]; listed as aminobutyrate) was “Over 20%”. The “sensitivity of growth to Abu” value [3] was “sensitive”, the “biomass of cells relative to the valine concentration” value (valine auxotroph CU505) was “did not change” and the “increase of yield of cells” value [4] was “up to 30%”.
